Reference: US10513521B2, “Compositions and methods for inhibiting BMP” (The Brigham and Women's Hospital, Inc., priority 2014, dated 2019)
Values joined by “and” are separate entries in the source; they are usually repeats but may differ in a detail not shown here. Equal values may be shown once.

What was measured:
[1] = Cell-based assay, TGFb1 (Cell IC50)
[2] = molecular target: T1, ALK2 (Mus musculus, UniProt P37172); experiment: In-cell Western ALK2 assay (C2C12 cells, BMP6 as agonist); assay type: cell-based; conditions: read-out: BMP6 ICW
T1 construct: The C2C12 cell line was selected for the measurement of ALK2 activity using BMP6 as the agonist; host or cells: C2C12
T1 sequence (P37172 21-509): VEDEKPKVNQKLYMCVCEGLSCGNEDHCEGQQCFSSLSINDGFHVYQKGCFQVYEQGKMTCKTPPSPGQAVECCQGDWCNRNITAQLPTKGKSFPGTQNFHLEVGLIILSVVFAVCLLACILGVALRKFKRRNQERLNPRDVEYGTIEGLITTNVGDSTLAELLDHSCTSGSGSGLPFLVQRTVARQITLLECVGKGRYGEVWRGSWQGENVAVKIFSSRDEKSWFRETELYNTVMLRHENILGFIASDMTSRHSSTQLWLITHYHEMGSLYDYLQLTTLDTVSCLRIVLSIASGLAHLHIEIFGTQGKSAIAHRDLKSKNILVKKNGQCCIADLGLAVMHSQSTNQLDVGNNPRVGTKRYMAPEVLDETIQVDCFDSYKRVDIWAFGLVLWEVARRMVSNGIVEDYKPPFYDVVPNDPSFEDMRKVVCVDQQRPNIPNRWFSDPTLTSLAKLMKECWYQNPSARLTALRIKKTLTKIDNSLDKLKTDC
Excerpt: 3. In-Cell Western ALK1 and ALK2 Assays in 384-Well Plate Format.
We also optimized cell-based In-cell Western assays for measurements of ALK1 and ALK2 activities that were used to determine compound activities in these two kinases. The cell lines and agonists used were same as described in above cell-based HTRF ALK1 and ALK2 assays. The initial cell plating and compound treatment were also same. The main difference is the detection of phosphorylation status of SMAD1. In t-cell Western assay, the cells were fixed and phosphorylation status of SMAD1 was detected by the ELISA instead of using the HTRF assay kit in above assay.
HyClone Fetal Bovine Serum was obtained from GE healthcare life sciences (Logan, Utah). BMP6 and BMP9 were purchased from R&D System (R&D). Anti-P-SMAD 1/5/8 rabbit mAb and anti-rabbit IgG, HRP-Linked antibody were purchased from Cell Signaling Technology (Danvers, Mass.). BioFX Chemiluminescent Ultra-Sensitive HRP Microwell Substrate ECL Reagent was obtained from SurModics (Edina, Minn.). The compound plates and the white solid MB assay plates were from Greiner Bio-one (Monroe, N.C.).
Similarly as described in above HTRF cell-based assay, this assay was performed in 384 well plate format. […] Pre-starved cells were then plated in 384 well plate in the starvation medium (containing in 0.1% FBS). After 4 hours, compound dilutions in DMSO were added to the assay plate and incubated for 30 minutes. The assay plate was then added with BMP6 for C2C12 cells or BMP9 for BAOEC cells and incubated for 30 minutes.
The cells were washed in the plate washer with PBS and blocked with 2% BSA in PBS for 1 h at room temperature on the rotator. After removing the blocking reagent, the cells were incubated with the anti-p-SMAD1 antibody in 2% BSA in PBS for overnight at 4° C. on rotator. The cells were washed with PBS in the plate washer and incubated with HRP conjugated second antibody in 2% BSA in PBS for 1 hour at room temperature. After a cell wash with PBS, ECL detection reagent was added and the plate was read in the luminesce mode in the ViewLux plate reader.

## C[C@@H]1CNC[C@H](C)N1c1ccc(-c2cnc3c(-c4cccc5c(C(N)=O)cccc45)cnn3c2)cc1 [Compound 10, 5-(6-(4-((2S,6R)-2,6-dimethylpiperazin-1-yl)phenyl)pyrazolo[1,5-a]pyrimidin-3-yl)-1-naphthamide]
[1]
  IC50: 353 nM

## N/C(=N/O)c1ccc(-c2cnn3cc(-c4ccc(N5CCNCC5)cc4)cnc23)c2ccccc12 [Compound 15, N′-hydroxy-4-(6-(4-(piperazin-1-yl)phenyl)pyrazolo[1,5-a]pyrimidin-3-yl)-1-naphthimidamide]
[1]
  IC50: 2660 nM

## CC(C)(CN1CCCCC1)Oc1ccc(-c2cnc3c(-c4cccc5c(C(N)=O)cccc45)cnn3c2)cc1 [Compound 18, 5-(6-(4-((2-methyl-1-(piperidin-1-yl)propan-2-yl)oxy)phenyl)pyrazolo[1,5-a]pyrimidin-3-yl)-1-naphthamide]
[1]
  IC50: 270 nM

## NS(=O)(=O)c1ccc(-c2cnn3cc(-c4ccc(CCN5CCCCC5)cc4)cnc23)c2ccccc12 [Compound 54, 4-(6-(4-(2-(piperidin-1-yl)ethyl)phenyl)pyrazolo[1,5-a]pyrimidin-3-yl)naphthalene-1-sulfonamide]
[2]
  IC50: 240 nM and 300 nM and 170 nM and 160 nM

## CC(O)c1cccc(-c2cnn3cc(-c4ccc(N5[C@H](C)CNC[C@@H]5C)cc4)cnc23)c1 (stereo partly drawn) [Compound 83, 1-(3-(6-(4-((2R,6S)-2,6-dimethylpiperazin-1-yl)phenyl)pyrazolo[5-a]pyrimidin-3-yl)phenyl)ethanol]
[1]
  IC50: 956 nM

## C[S+](=O)([O-])c1cccc(-c2cnn3cc(-c4ccc(OC5(CN6CCCCC6)COC5)cc4)cnc23)c1 [Compound 93, 3-(3-(methylsulfonyl)phenyl)-6-(4-((3-(piperidin-1-ylmethyl)oxetan-3-yl)oxy)phenyl)pyrazolo[1,5-a]pyrimidine]
[1]
  IC50: 100000 nM

## CC[S+](=O)([O-])c1cccc(-c2cnn3cc(-c4ccc(N5[C@H](C)CNC[C@@H]5C)cc4)cnc23)c1 [Compound 104, 6-(4-((2R,6S)-2,6-dimethylpiperazin-1-yl)phenyl)-3-(3-(ethylsulfonyl)phenyl)pyrazolo[1,5-a]pyrimidine]
[2]
  IC50: 96 nM and 70 nM

## C[S+](=O)([O-])c1cccc(-c2cnn3cc(-c4ccc(OCCN5CCCCC5)cc4)cnc23)c1 [Compound 109]
[2]
  IC50: 190 nM and 300 nM

## C[C@@H]1CNC[C@H](C)N1c1ccc(-c2cnc3c(-c4cccc([S+](=O)([O-])C5CC5)c4)cnn3c2)cc1 [Compound 111, 3-(3-(cyclopropylsulfonyl)phenyl)-6-(4-((2R,6S)-2,6-dimethylpiperazin-1-yl)phenyl)pyrazolo[1,5-a]pyrimidine]
[2]
  IC50: 180 nM and 170 nM

## CC(C)S(=O)(=O)c1cccc(-c2cnn3cc(-c4ccc(CCN5CCCCC5)cc4)cnc23)c1 [Compound 113, 3-(3-(isopropylsulfonyl)phenyl)-6-(4-(2-(piperidin-1-yl)ethyl)phenyl)pyrazolo[1,5-a]pyrimidine]
[2]
  IC50: 360 nM and 220 nM

## CC(C)S(=O)(=O)c1cccc(-c2cnn3cc(-c4ccc(N5[C@H](C)CNC[C@@H]5C)cc4)cnc23)c1 [Compound 114, 6-(4-((2R,6S)-2,6-dimethylpiperazin-1-yl)phenyl)-3-(3-(isopropylsulfonyl)phenyl)pyrazolo[1,5-a]pyrimidine]
[2]
  IC50: 110 nM and 88 nM

## CS(=O)(=O)c1cccc(-c2cnn3cc(-c4ccc(CN5CCCCC5)cc4)cnc23)c1 [Compound 123, 3-(3-(methylsulfonyl)phenyl)-6-(4-(piperidin-1-ylmethyl)phenyl)pyrazolo[1,5-a]pyrimidine]
[2]
  IC50: 300 nM and 100 nM

## CC(O)c1cccc(-c2cnn3cc(-c4ccc(OC5(CN6CCCCC6)CC5)cc4)cnc23)c1 (stereo not shown) [Compound 143, 1-(3-(6-(4-(1-(piperidin-1-ylmethyl)cyclopropoxy)phenyl)pyrazolo[1,5-a]pyrimidin-3-yl)phenyl)ethanol]
[2]
  IC50: 57 nM and 56 nM
